Common to all, as to experiment: microbe, parasite or virus in culture
Type in all cases: cell-based, Mycobacterium tuberculosis

Experiment [1] deals with Mtb strain resistant to Streptomycin ATCC 35820. To be noted: Mycobacterium tuberculosis, ATCC35820, read-out: Activity against Mtb strain resistant to Streptomycin ATCC 35820.
Experiment [2] deals with Mtb strain resistant to P-aminosalicyclic acid ATCC 35821. To be noted: Mycobacterium tuberculosis, ATCC35821, read-out: Activity against Mtb strain resistant to P-aminosalicyclic acid ATCC 35821.
The subject of experiment [3] is Mtb strain resistant to Isoniazid ATCC 35822. The conditions noted are these: Mycobacterium tuberculosis, ATCC35822, read-out: Activity against Mtb strain resistant to Isoniazid ATCC 35822.
Experiment [4] concerns Mtb strain resistant to Kanamycin ATCC 35827. To be noted: Mycobacterium tuberculosis, ATCC35827, read-out: Activity against Mtb strain resistant to Kanamycin ATCC 35827.
In experiment [5] the test system is Mtb strain resistant to Ethionamide ATCC 35830. To be noted: Mycobacterium tuberculosis, ATCC35830, read-out: Activity against Mtb strain resistant to Ethionamide ATCC 35830.
Experiment [6] concerns Mtb strain resistant to Ethambutol ATCC 35837. To be noted: Mycobacterium tuberculosis, ATCC35837, read-out: Activity against Mtb strain resistant to Ethambutol ATCC 35837.

The structures appear in SMILES notation. ≈ marks a conversion by molar mass, not a printed value.

`CCN(CC)c1n[n+]([O-])c2ccccc2[n+]1[O-]` [SRI-009728]: the MIC amounted to 0.31 mg/L (≈ 1.32 µM) in experiment [1]; 0.31 mg/L (≈ 1.32 µM) in experiment [2]; 0.31 mg/L (≈ 1.32 µM) in experiment [3]; 0.31 mg/L (≈ 1.32 µM) in experiment [4]; 0.16 mg/L (≈ 0.683 µM) in experiment [5]; 0.31 mg/L (≈ 1.32 µM) in experiment [6].
As for `CCNc1n[n+]([O-])c2cc3c(cc2[n+]1[O-])CCC3` [SRI-012286], the MIC in experiment [1] was determined as 0.63 mg/L (≈ 2.56 µM); in experiment [2] it was 1.25 mg/L (≈ 5.08 µM); in experiment [3], 2.5 mg/L (≈ 10.2 µM); in experiment [4] it was 1.25 mg/L (≈ 5.08 µM); in experiment [5], 1.25 mg/L (≈ 5.08 µM); in experiment [6], 1.25 mg/L (≈ 5.08 µM).
As to `[O-][n+]1nc(NC2CCC2)[n+]([O-])c2cc3c(cc21)CCC3` [SRI-012403], the MIC in experiment [3] and in experiment [4] was 1.25 mg/L (≈ 4.59 µM) throughout.
As for `[O-][n+]1nc(N2CCCC2)[n+]([O-])c2ccccc21` [SRI-012495], the MIC in experiment [3] and in experiment [4] was 0.31 mg/L (≈ 1.33 µM) throughout.
As to `CCNc1n[n+]([O-])c2cc3c(cc2[n+]1[O-])CCCC3` [SRI-012496], the MIC in experiment [1], in experiment [2], in experiment [3], in experiment [4], in experiment [5] and in experiment [6] was 1.25 mg/L (≈ 4.8 µM) throughout.
As for `[O-][n+]1nc(NC2CCC2)[n+]([O-])c2cc3c(cc21)CCCC3` [SRI-012497], the MIC in experiment [1] worked out at 1.25 mg/L (≈ 4.37 µM); in experiment [2], 1.25 mg/L (≈ 4.37 µM); in experiment [3], 2.5 mg/L (≈ 8.73 µM); in experiment [4], 2.5 mg/L (≈ 8.73 µM); in experiment [5], 1.25 mg/L (≈ 4.37 µM); in experiment [6], 2.5 mg/L (≈ 8.73 µM).
On to `[O-][n+]1nc(NC2CC3CCC2C3)[n+]([O-])c2cc3c(cc21)CCCC3` (centres unmarked) [SRI-012498], for which the MIC is 1.25 mg/L (≈ 3.83 µM) in experiment [1]; 1.25 mg/L (≈ 3.83 µM) in experiment [2]; 2.5 mg/L (≈ 7.66 µM) in experiment [3]; 1.25 mg/L (≈ 3.83 µM) in experiment [4]; 1.25 mg/L (≈ 3.83 µM) in experiment [5]; 1.25 mg/L (≈ 3.83 µM) in experiment [6].
As to `[O-][n+]1nc(N2CCCC2)[n+]([O-])c2cc3c(cc21)CCC3` [SRI-012530], the MIC was found to be 0.16 mg/L (≈ 0.588 µM) in experiment [1]; 0.31 mg/L (≈ 1.14 µM) in experiment [2]; 0.31 mg/L (≈ 1.14 µM) in experiment [3]; 0.63 mg/L (≈ 2.31 µM) in experiment [4]; 0.62 mg/L (≈ 2.28 µM) in experiment [5]; 0.62 mg/L (≈ 2.28 µM) in experiment [6].
Take `[O-][n+]1nc(N2CCCCC2)[n+]([O-])c2cc3c(cc21)CCC3` [SRI-012562]: the figures for the MIC in experiment [3] and in experiment [4] were 0.15 mg/L (≈ 0.524 µM) and 0.31 mg/L (≈ 1.08 µM), respectively.
`CN(C)c1n[n+]([O-])c2cc3c(cc2[n+]1[O-])CCC3` [SRI-012563]: the MIC in experiment [3] was less than 0.07 mg/L; in experiment [4] it was 0.31 mg/L (≈ 1.26 µM).
As for `CN(Cc1ccccc1)c1n[n+]([O-])c2cc3c(cc2[n+]1[O-])CCC3` [SRI-012564], the MIC in experiment [3] is less than 0.07 mg/L; in experiment [4], 0.15 mg/L (≈ 0.465 µM).
For the compound `CN(CCc1ccccc1)c1n[n+]([O-])c2cc3c(cc2[n+]1[O-])CCC3` [SRI-012565], the values for the MIC in experiment [3] and in experiment [4] were 0.07 mg/L (≈ 0.208 µM) and 0.15 mg/L (≈ 0.446 µM), respectively.
Turning to `O=S1(=O)CCN(c2n[n+]([O-])c3cc4c(cc3[n+]2[O-])CCC4)CC1` [SRI-012566], the MIC stood at 2.5 mg/L (≈ 7.43 µM) in experiment [1]; 2.5 mg/L (≈ 7.43 µM) in experiment [2]; 2.5 mg/L (≈ 7.43 µM) in experiment [3]; 2.5 mg/L (≈ 7.43 µM) in experiment [4]; 0.62 mg/L (≈ 1.84 µM) in experiment [5]; 2.5 mg/L (≈ 7.43 µM) in experiment [6].
In the case of `CC1CCCCN1c1n[n+]([O-])c2cc3c(cc2[n+]1[O-])CCC3` (centres unmarked) [SRI-012567], the MIC in experiment [3] came to 0.31 mg/L (≈ 1.03 µM); in experiment [4], 0.62 mg/L (≈ 2.06 µM).

These data come from patent publication US9663478B2, “Benzotriazine oxides as drugs targeting Mycobacterium tuberculosis” (priority 2011, dated 2017).
